“And” between values parts separate entries of the source, which are not always exact repeats. Equal values may be shown once. Read-outs that look alike come from different tables or passages of the source.
Assays:
[1] = system: normal murine liver cells (ATCC CRL-1638; NmuLi); assay: Cultured liver cell proliferation after acetaminophen, [3H]thymidine incorporation; assay type: cell-based, mouse; settings: for Proliferation of liver cells exposed to acetaminophen for 24 h: 2.5 mg/ml acetaminophen; for Proliferation of liver cells exposed to PBS: NAC 1 mM, cytokines 1 ng/ml, no acetaminophen
Description: The effects of chemokines, NAC and HGF on hepatocyte proliferation after a 24 h acetaminophen challenge were examined using normal murine liver cells obtained from American Type Culture Collection (ATCC CRL-1638; NmuLi). Hepatocytes were plated at a density of 1.0×10^5 cells/well in 6-well tissue culture plates, and were deprived of fetal bovine serum supplementation for 36 h prior to an study. Fasted hepatocytes were subsequently exposed to 2.5 mg/ml of acetaminophen and were left untreated or treated with one of NAC, MIP-2, ENA-78, IL-8, IP-10 or HGF. NAC at 1 mM or individual cytokines at 1 ng/ml were added either immediately or 10 h after the addition of acetaminophen.
In additional in vitro studies, normal serum or anti-CXCR2 antibody was also included in cultures of treated or untreated hepatocytes exposed to PBS or acetaminophen. Ten μCi of [^3H]thymidine was added to each well for the final 4 h of culture, and 24 h after the addition of acetaminophen suspensions of hepatocytes were prepared via cell lysis with 0.5% (v/v) Triton-X100. [^3H]thymidine incorporation was assessed by liquid scintillation counting on a Beckman counter (Beckman Instruments, Fullerton, Calif.).

[2] = system: CD1 mice challenged with 400 mg/kg acetaminophen; assay: Acetaminophen challenge in mice fasted 24 h, MIP-2 or NAC treatment; assay type: in vivo, mouse
Description: Protocol 3: In the next set of studies, mice were fasted for 24 h and received MIP-2 (2 μg) or NAC (100 μg) via an i.v. injection either immediately or 10 h after acetaminophen challenge, and liver and serum samples were removed from surviving mice 48 h after acetaminophen challenge. Liver and serum samples from the experimental groups and from mice challenged with an i.p. injection of PBS and treated i.v. with normal saline were processed as described below.
The histological appearances of the livers from mice that were challenged with acetaminophen and received 100 μg of NAC or 2 μg of murine MIP-2 by i.v. injection, either immediately after or 10 h later, were also analyzed.

[3] = system: CD1 mice challenged with 400 mg/kg acetaminophen; assay: Acetaminophen-induced hepatic injury, mice fasted 12 h, treatment immediately or 10 h after challenge; assay type: in vivo, mouse; settings: for Liver injury (histology): treatment 10 h after acetaminophen, liver at 48 h; for Significant reduction of serum AST levels / Reduction of serum AST levels: AST at 48 h; for Reduction of serum AST levels: NAC 100 ug, proteins 2 ug i.v.
Description: Female CD1 mice (6-8 wk of age) were purchased from Charles River Laboratories (Portage, Mich.) and maintained under specific pathogen-free conditions with free access to water and food prior to each study. Fresh suspensions of acetaminophen (Sigma Chemical Company, St. Louis, Mo.) were made daily by dissolving the compound in phosphate buffered saline (PBS) warmed to 40° C. In all studies, mice were allowed free access to water alone prior to an i.p. injection of 400 mg/kg acetaminophen (Manatou et al., 1996; incorporated herein by reference).
Protocol 2: In the second set of studies, mice were fasted for 12 h and received one of NAC, murine MIP-2, the human proteins ENA-78, IL-8, HGF or IP-10 either immediately or 10 h after acetaminophen challenge. […] Mice were injected i.v. with 100 μg of NAC or 2 μg of recombinant protein (ENA-78, IL-8, HGF or IP-10) dissolved in 0.5 ml of normal saline. All mice were subsequently sacrificed 48 h after acetaminophen challenge and serum and liver samples were removed.
Acute hepatocellular injury results in elevated levels of aspartate aminotransferase (AST). Serum levels of AST were determined 48 h after mice were challenged with acetaminophen by Clinical Pathology at the University of Michigan Medical School (Ann Arbor, Mich.) using standardized techniques.
For histological assessment of hepatic injury, liver tissues were fixed in 4% paraformaldehyde for 24 h prior to routine histological processing. A pathologist assessed hematoxylin and eosin stained slides from acetaminophen-challenged mice in a blinded manner. Separate scoring systems were devised to indicate the area of liver necrosis and hemorrhage, and the extent of hepatic inflammation. Detailed histological grading of hepatic injury including area of liver necrosis and hemorrhage was determined at 48 h after acetaminophen challenge. Hepatic inflammation was graded as absent, slight, moderate, or prominent.
The histological appearances of the livers from normal mice and mice that were challenged with acetaminophen and received saline or 2 μg of murine MIP-2, human ENA-78, human IL-8, human IP-10, human HGF or 100 μg of NAC were also analyzed. Mice were fasted for 12 h prior to i.p. injection with 400 mg/kg of acetaminophen, and then allowed free access to food. In these studies, saline, chemokines or NAC were given by i.v. injection 10 h after acetaminophen challenge, and liver was removed from each mouse for histological examination at the 48 h time point after acetaminophen.

[4] = system: primary rat hepatocytes
Description: (§1) Adult male pathogen-free Sprague Dawley rats (Charles River, Portage, Mich.) weighing 300-350 gms. were used for isolation of hepatocytes by collagenase perfusion (Berry and Friend, 1969; Alpini et al., 1994; each incorporated herein by reference). Perfusion was performed via the portal vein after anesthesia was induced with intramuscular ketamine (100 mg/kg) and maintained with inhalation of methoxyflurane. […] The portal vein was then exposed and cannulated with a 16 gauge angiocatheter.
(§2) The liver was perfused with Hank's solution (calcium and magnesium free with 10 mM Hepes and 10^5 U/L of penicillin/streptomycin, pH 7.4 [Biowhittaker, Walkersville, Md.]) at 37° C. at a rate of 10 ml/min to flush the liver of intravascular blood. The liver was next perfused with a collagenase solution (0.5 mg/ml collagenase B [Boehringer Mannheim, Indianapolis, Ind.] in Dulbecco's Modified Eagle's Media/F12 [DMEM/F12 {Biowhittaker, Walkersville, Md.}] with 10^5 U/L penicillin/streptomycin) at 37° C. at a rate of 10 ml/min until there was evidence of tissue fracture beneath the liver capsule.
(§3) The liver was then gently removed from the animal, placed into a sterile petri dish containing additional collagenase solution, the liver capsule removed, and the tissue gently agitated to disperse the cells. […] Hepatocyte viability was generally 85-95% as determined by trypan blue exclusion. […]

[5] = system: CD-1 mice challenged with 400 mg/kg acetaminophen
[6] = target: T1, murine CXCR2 (Mus musculus, UniProt P35343); settings: Lee et al., 1995; cited from earlier work
T1 sequence (P35343 1-359): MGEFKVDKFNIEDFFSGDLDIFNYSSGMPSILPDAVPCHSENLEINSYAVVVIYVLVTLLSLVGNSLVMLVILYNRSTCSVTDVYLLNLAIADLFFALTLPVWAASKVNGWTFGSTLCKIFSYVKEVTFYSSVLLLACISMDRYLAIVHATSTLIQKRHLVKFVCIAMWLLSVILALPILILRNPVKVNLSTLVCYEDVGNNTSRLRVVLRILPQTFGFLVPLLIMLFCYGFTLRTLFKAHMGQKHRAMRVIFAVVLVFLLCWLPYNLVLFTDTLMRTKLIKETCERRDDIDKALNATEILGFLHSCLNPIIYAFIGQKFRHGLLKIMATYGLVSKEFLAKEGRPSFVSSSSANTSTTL

[7] = system: neutrophils; settings: ELR motif introduced into PF-4; cited from earlier work
[8] = system: CD-1 mice challenged with 400 mg/kg acetaminophen; assay: Delayed MIP-2 therapy in acetaminophen-challenged mice: histology, BrdU, nuclear Western blot; assay type: in vivo, mouse
[9] = system: primary rat hepatocytes; assay: Primary rat hepatocyte proliferation in vitro, 3H-thymidine incorporation; settings: 0.001-100 ng/ml, 24 h of incubation, vs media alone
Description: as §1, §2, §3

[10] = 24 h fast, treatment delayed 10 h
[11] = CD1 mice fasted 24 h, 400 mg/kg acetaminophen, 400 mg/kg
[12] = treatment delayed 10 h after acetaminophen
[13] = treatment immediately after acetaminophen

CC(=O)N[C@@H](CS)C(=O)O [NAC, N-acetyl-cysteine]
Proliferation of liver cells exposed to acetaminophen for 24 h ([1]; treatment added 10 h later, vs PBS cultures): significantly reduced liver cell proliferation | Proliferation of liver cells exposed to acetaminophen for 24 h ([1]; treatment added immediately): maintained the proliferation | Proliferation of liver cells exposed to PBS [1]: did not alter the proliferation | Liver histology [2, 10]: did not attenuate hepatic injury | Liver histology ([2]; 24 h fast, treatment immediately after acetaminophen): effective | Serum AST, NAC vs MIP-2 ([2]; 24 h fast, treatment immediately after acetaminophen, 48 h): significantly lower levels of serum AST | Percent survival, treatment Immediately After Acetaminophen ([2]; CD1 mice fasted 24 h, 400 mg/kg acetaminophen, monitored 48 h, 400 mg/kg): 90% | Percent survival, treatment 10 h post Acetaminophen [2, 11]: 25% and 20% | Liver injury (histology) [3]: Neither HGF nor 100 μg of NAC were effective | Significant reduction of serum AST levels [3, 12]: no longer able to significantly reduced serum AST levels | Reduction of serum AST levels [3, 13]: approximately 90%

ENA-78: ELR-containing CXC chemokine, epithelial neutrophil activating protein-78; human recombinant protein
Proliferation of liver cells exposed to acetaminophen for 24 h ([1]; treatment added immediately): prevented the drop in liver cell proliferation | Proliferation of liver cells exposed to PBS [1]: did not change the proliferation | Liver injury (histology) [3]: marked attenuation of liver injury | Significant reduction of serum AST levels [3, 12]: significantly reduced serum AST levels | Reduction of serum AST levels [3, 13]: approximately 50%

HGF: human hepatocyte growth factor, used as positive control [reference compound]
Proliferation of liver cells exposed to PBS [1]: did not change the proliferation | Hepatocyte proliferation (incorporation of 3H-thymidine) [4]: more significant | Liver injury (histology) [3]: Neither HGF nor 100 μg of NAC were effective | Significant reduction of serum AST levels [3, 13]: not

IL-8: ELR-containing CXC chemokine, interleukin-8; human recombinant protein
Proliferation of liver cells exposed to PBS [1]: did not change the proliferation | Liver injury (histology) [3]: marked attenuation of liver injury | Significant reduction of serum AST levels [3, 12]: significantly reduced serum AST levels | Reduction of serum AST levels [3, 13]: approximately 50%

IP-10: non-ELR CXC chemokine, γ-interferon-inducible protein-10
Hepatic injury (histology) ([5]; 1 ug i.v. 10 h after acetaminophen, 2 days after challenge): dramatically decreased hepatic injury | Decrease in liver injury (serum ALT) ([5]; 8 hours after administration, vs saline): approximately three-fold | Serum MIP-2 levels ([5]; 8 h post treatment): almost three times the levels seen in control animals | CXCR2 protein in liver (Western blot) ([5]; 26 h and subsequent time points): high level of CXCR2 protein | CXCR2 protein on hepatocytes (immunohistochemistry) ([5]; mouse, in vivo): quite strong expression of CXCR2 protein | Lowering of proliferation rate of liver cells exposed to PBS ([1]; 1 ng/ml, vs control cultures with PBS): 40% | Proliferation of liver cells exposed to acetaminophen for 24 h ([1]; treatment added immediately): not further reduced | Significant reduction of serum AST levels [3, 13]: not

B1: KC: murine ELR-CXC chemokine with neutrophil chemotactic properties (protein, UniProt P12850 25-96, looked up)
Growth-regulated alpha protein: APIANELRCQCLQTMAGIHLKNIQSLKVLPSGPHCTQTEVIATLKNGREACLDPEAPLVQKIVQKMLKGVPK
Affinity for CXCR2, fold less than MIP-2 [6]: approximately 10 fold

B2: PF-4: CXC chemokine lacking the ELR sequence (protein, UniProt P02776 32-101, looked up)
Platelet factor 4: EAEEDGDLQCLCVKTTSQVRPRHITSLEVIKAGPHCPTAQLIATLKNGRKICLDLQAPLYKKIIKKLLES
Increase in neutrophil chemotactic properties [7]: 1,000 fold

B3: MIP-2: ELR-containing CXC chemokine, macrophage inflammatory protein-2; recombinant murine protein (protein, UniProt P10889 28-100, looked up)
C-X-C motif chemokine 2: AVVASELRCQCLKTLPRVDFKNIQSLSVTPPGPHCAQTEVIATLKGGQKVCLDPEAPLVQKIIQKILNKGKAN
Proliferation of liver cells exposed to acetaminophen for 24 h ([1]; treatment added immediately): prevented the drop in liver cell proliferation | Proliferation of liver cells exposed to PBS [1]: did not change the proliferation | Liver histology [2, 10]: showed improvements | Serum AST, MIP-2 vs NAC ([2]; 24 h fast, treatment delayed 10 h, 48 h): significantly lower levels of serum AST | Percent survival, treatment 10 h post Acetaminophen [2, 11]: 60% | Liver histology 2 days after injection ([8]; 1 ug i.v. 10 h after acetaminophen): little evidence of liver injury | Nuclear expression of C/EBP-α ([8]; 8 h after treatment): exhibited nuclear expression of the 48- and 42-kDa isoforms of C/EBP-α | Nuclear cyclin D1 protein ([8]; 24 h after treatment, Western blot): markedly greater nuclear levels of cyclin D1 protein | BrdU-labeled hepatocytes, enhancement above control group ([8]; 48 h after treatment): 10 fold | AST and ALT levels ([8]; IL-6 knockout): dramatic decrease of AST and ALT levels | Nuclear expression of 38- and 35-kDa LAP of C/EBP-β ([8]; Western blot of liver nuclear extracts): evident at 4 h after MIP-2 treatment | Nuclear expression of STAT-3 ([8]; vs PBS): strongly expressed at all times examined | IL-6 in serum or liver ([8]; vs controls): never significantly elevated | Affinity for murine CXCR2 relative to KC [6]: ten-fold greater affinity | Hepatocyte proliferation (incorporation of 3H-thymidine) [9]: significant increase in hepatocyte proliferation | Liver injury (histology) [3]: marked attenuation of liver injury | Significant reduction of serum AST levels [3, 12]: significantly reduced serum AST levels | Reduction of serum AST levels [3, 13]: approximately 50%

From patent US6719969B1, “Treatment of liver disease and injury with CXC chemokines” (The Regents of The University of Michigan, priority 1999, dated 2004)
